According to US9365522B2, “Pyrazole amide derivative” (AMGEN INC., priority 2015, dated 2016):

Target: T1, human RORγ-LBD (Homo sapiens, UniProt P51449)
T1 construct: made in house; host or cells: E. coli (BL-21)
T1 sequence (P51449 262-518): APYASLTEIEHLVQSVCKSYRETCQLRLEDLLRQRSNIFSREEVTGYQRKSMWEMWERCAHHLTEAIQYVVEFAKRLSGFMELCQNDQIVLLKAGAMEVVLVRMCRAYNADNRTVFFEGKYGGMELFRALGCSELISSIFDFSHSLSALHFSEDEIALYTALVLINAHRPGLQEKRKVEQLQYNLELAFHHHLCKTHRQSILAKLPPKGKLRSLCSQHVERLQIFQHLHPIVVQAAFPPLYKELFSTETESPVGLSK
Test: ROR gamma coactivator peptide recruitment Alphascreen assay (RORγ-LBD binding to GRIP1 coactivator peptide)
Type: biochemical
Conditions: 5 nM human RORγ-LBD, 30 nM 7-β-hydroxycholesterol, 50 nM biotinylated GRIP1 coactivator peptide, overnight incubation at room temperature; read-out: result (pIC50, RORγ coactivator peptide recruitment Alphascreen assay) (converted)
Procedure, shortened: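 Alphascreen proximity read-out after overnight room-temperature incubation, yielding pIC50 from 1-in-2 compound series (2.5% DMSO final). Mixture: 50 nM biotin-GRIP1 peptide, 30 nM 7-β-hydroxycholesterol agonist, 5 nM recombinant 6×His:Flag human RORγ-LBD (aa 262-518), 50 mM HEPES pH 7.4.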

SMILES | IC50 [nM]
CC(C)(C)CN(C[C@H](O)c1c(Cl)cccc1Cl)C(=O)c1cnn([C@H]2CC[C@H](C(=O)O)CC2)c1C(F)(F)F [Example 573, trans-4-(4-(((2R)-2-(2,6-dichlorophenyl)-2-hydroxyethyl)(2,2-dimethylpropyl)carbamoyl)-5-(trifluoromethyl)-1H-pyrazol-1-yl)cyclohexanecarboxylic acid] | 79.4
CC1(C)C[C@H](CN(CC(=O)c2c(Cl)cccc2Cl)C(=O)c2cnn([C@H]3CC[C@](C)(C(=O)O)CC3)c2C(F)(F)F)O1 [Example 628, trans-4-(4-((2-(2,6-dichlorophenyl)-2-oxoethyl)(((2R)-4,4-dimethyl-2-oxetanyl)methyl)carbamoyl)-5-(trifluoromethyl)-1H-pyrazol-1-yl)-1-methylcyclohexanecarboxylic acid] | 26.9
CC1(C)CC(CN(CC(=O)c2c(Cl)cncc2Cl)C(=O)c2cnn([C@H]3CC[C@](C)(C(=O)O)CC3)c2C(F)(F)F)C1 [Example 559, trans-4-(4-((2-(3,5-dichloro-4-pyridinyl)-2-oxoethyl)((3,3-dimethylcyclobutyl)methyl)carbamoyl)-5-(trifluoromethyl)-1H-pyrazol-1-yl)-1-methylcyclohexanecarboxylic acid] | 7.08
Cc1cc(Cl)c(CCN(CC2(C)CCCCC2)C(=O)c2cnn(C3CCC(C(=O)O)CC3)c2C(F)(F)F)c(Cl)c1 (stereo in doubt) [Example 511, trans-4-(4-((2-(2,6-dichloro-4-methylphenyl)ethyl)((1-methylcyclohexyl)methyl)carbamoyl)-5-(trifluoromethyl)-1H-pyrazol-1-yl)cyclohexanecarboxylic acid] | 1.86
Cc1cc(Cl)c(C(=O)CN(CC2(C)CCCCC2)C(=O)c2cnn([C@H]3CC[C@H](C(=O)O)CC3)c2C(F)(F)F)c(Cl)c1 [Example 519, trans-4-(4-((2-(2,6-dichloro-4-methylphenyl)-2-oxoethyl)((1-methylcyclohexyl)methyl)carbamoyl)-5-(trifluoromethyl)-1H-pyrazol-1-yl)cyclohexanecarboxylic acid] | 5.13
COC(CN(CC(C)(C)C)C(=O)c1cnn([C@H]2CC[C@H](C(=O)O)CC2)c1C(F)(F)F)c1c(Cl)cc(C)cc1Cl (relative stereo) [Example 529, trans-4-(4-(((2R/S)-2-(2,6-dichloro-4-methylphenyl)-2-methoxyethyl)(2,2-dimethylpropyl)carbamoyl)-5-(trifluoromethyl)-1H-pyrazol-1-yl)cyclohexanecarboxylic acid] | 63.1

Second part, the compound after the results:

IC50 [nM] | SMILES
2.09 | C[C@]1(C(=O)O)CC[C@H](n2ncc(C(=O)N(CC(=O)c3c(Cl)cc(F)cc3Cl)CC3CCCC3)c2C(F)(F)F)CC1 [Example 698, trans-4-(4-((cyclopentylmethyl)(2-(2,6-dichloro-4-fluorophenyl)-2-oxoethyl)carbamoyl)-5-(trifluoromethyl)-1H-pyrazol-1-yl)-1-methylcyclohexanecarboxylic acid]
13.2 | CC(C)CCN(CC(=O)c1c(Cl)cncc1Cl)C(=O)c1cnn([C@H]2CC[C@](C)(C(=O)O)CC2)c1C(F)(F)F [Example 700, trans-4-(4-((2-(3,5-dichloro-4-pyridinyl)-2-oxoethyl)(3-methylbutyl)carbamoyl)-5-(trifluoromethyl)-1H-pyrazol-1-yl)-1-methylcyclohexanecarboxylic acid]
1.95 | CC1(C)[C@@H]2C[C@H](N(CC(=O)c3c(F)cccc3Cl)C(=O)c3cnn([C@H]4CC[C@](C)(C(=O)O)CC4)c3C(F)(F)F)C[C@@H]21 [Example 658, trans-4-(4-((2-(2-chloro-6-fluorophenyl)-2-oxoethyl)((1R,3r,5S)-6,6-dimethylbicyclo[3.1.0]hex-3-yl)carbamoyl)-5-(trifluoromethyl)-1H-pyrazol-1-yl)-1-methylcyclohexanecarboxylic acid]
